Assay type in all cases: functional
Common to all, as to details: read-out: ED50 (the source's name)

Test [1] deals with A549. Put plainly: Cytotoxicity against human A549 cells.
In test [2] the test system is SK-MEL-2. Put plainly: Cytotoxicity against human SK-MEL-2 cells.
The subject of test [3] is XF498. Put plainly: Cytotoxicity against human XF498 cells.
In test [4] the test system is HCT-15. Put plainly: Cytotoxicity against human HCT15 cells.
Test [5] relates to SK-OV-3. Description: Cytotoxicity against human SKOV3 cells.

Values after ≈ are worked out from the molar mass of the structure shown.

As to `CC(C)=CCC/C(C)=C/CC/C(C)=C/C[C@@]12O[C@@H]1[C@H](O)C(C)=CC2=O`, the EC50 in test [1] is 7.74 µg/mL (≈ 22.5 µM); in test [2], 3.86 µg/mL (≈ 11.2 µM); in test [3] it was 10 µg/mL (≈ 29.1 µM); in test [4], 10.1 µg/mL (≈ 29.2 µM); in test [5], 6.35 µg/mL (≈ 18.4 µM).

On to `CC(C)=CCC/C(C)=C\CC/C(C)=C\Cc1cc(O)c(C)cc1O`, for which the EC50 in test [1] stood at 4.73 µg/mL (≈ 14.4 µM); in test [2] it was 4.8 µg/mL (≈ 14.6 µM); in test [3], 5.94 µg/mL (≈ 18.1 µM); in test [4], 6.11 µg/mL (≈ 18.6 µM); in test [5], 5.31 µg/mL (≈ 16.2 µM).

On to `CC(C)=CCC/C(C)=C\CC/C(C)=C\CC1=CC(=O)C(C)=CC1=O`, for which the EC50 was 25.4 µg/mL (≈ 77.9 µM) in test [1]; 18.4 µg/mL (≈ 56.4 µM) in test [2]; 38.1 µg/mL (≈ 117 µM) in test [3]; 42.6 µg/mL (≈ 130 µM) in test [4]; 37.3 µg/mL (≈ 114 µM) in test [5].

`COc1cccc2c1C(=O)c1c(O)c3c(c(O)c1C2=O)C[C@@](O)(C(=O)CO)C[C@@H]3O[C@H]1C[C@H](N)[C@H](O)[C@H](C)O1` [DOXORUBICIN]: the EC50 was 0.02 µg/mL (≈ 0.0368 µM) in test [1]; 0.04 µg/mL (≈ 0.0736 µM) in test [2]; 0.02 µg/mL (≈ 0.0368 µM) in test [3]; 0.79 µg/mL (≈ 1.45 µM) in test [4]; 0.09 µg/mL (≈ 0.166 µM) in test [5].

The record behind these values is ChEMBL document CHEMBL1147253, “New polyoxygenated farnesylcyclohexenones, deacetoxyyanuthone A and its hydro derivative from the marine-derived fungus Penicillium sp” (2003).
